Where a SMILES comes first, the peptide text is derived from it. The star is where a group is joined. Cbz = O=C(OCc1ccccc1)*

Details of data set [1]: species or system mice. Particulars: mouse, in vivo.
Description: Brain, blood and CSF were sampled and prepared for radioactivity analysis. […] Brain, plasma and CSF samples were mixed with TCA (final concentration 10%), centrifuged at 14,000 rpm at 4° C. for 8 min to 10 min, and radioactivity in the precipitate, water and chloroform fractions determined in gamma counter (Wallac, Turku, Finland).
The supernatant was then lyophilized. The resulting material was dissolved in 0.005% TFA in water, pH 2, before injection onto a C4 column (Vydac, The Separation Group, Hesperia, Calif.). […] Column eluants were monitored at 214 nm. The eluted fractions were collected and counted.
For SDS-PAGE analysis, TCA precipitated samples were resuspended in 1% SDS, vortexed and incubated at 55° C. for 5 min, then neutralized, boiled for 3 min, homogenized and analyzed by electrophoresis in 10% Tris-tricine gels followed by fluorography.
Data set [2] concerns LRP-1. Description: LRP-1 levels in human brain endothelial cells exposed to Aβ (Western blot). Type of data set: cell-based. The note with it: human BEC; for effect on LRP-1 levels (85 kDa β-subunit and 515 kDa α-subunit): greater than or equal to 1 μM, 48 hr; for effect on LRP-1 expression: low concentrations (less than 10 nM), within 48 hr. The protocol: Human brain endothelial cells (BEC) were isolated from rapid autopsies of neurologically normal young individuals after trauma. BECs were characterized and cultured, and then incubated with different Aβ isoforms at concentrations ranging from 1 nM to 20 μM within 48 hr. Cells were lysed and equal amounts of proteins (10 μg/mi) were separated by 10% denaturing polyacrylamide gel electrophoresis (SDS-PAGE), transferred onto nitrocellulose membrane, and probed with 5A6 (β-chain) or 8G1 (α-chain) human anti-LRP-1-specific IgGs. The relative density of each protein was determined by scanning densitometry using β-actin as an internal control.
(In western blotting, separated proteins are transferred to a membrane and probed.)

The nature of data set [3]: Brain clearance model in mice: efflux of 125I-Aβ1-40 and 14C-inulin after intracerebral microinjection. The format is in vivo, mice. The protocol: Male C57BL/6 wild-type mice, 8-10 weeks old and 9-10 months old, and male apoE knockout mice (apoE KO) on a C57BL/6 background (Taconic Farm, German-town, N.Y.), 8-10 weeks old and 9-10 months old, were studied.
A stainless steel guide cannula was implanted stereotaxically into the right caudate-putamen of anesthetized mice (60 mg/kg i.p. sodium pentobarbital). Coordinates for the tip of the cannula were 0.9 mm anterior and 1.9 mm lateral to bregma and 2.9 mm below the surface of the brain. The guide cannula and screw were fixed to the skull with methylmethacrylate (Plastics One, Roanoke, Va.) and a stylet introduced into the guide cannula.
(§1) For radioisotope injection, animals were re-anesthetized and an injector cannula (Plastic One, Roanoke, Va.) attached with 24G-TEFLON tubing (Small Parts, Miami Lake, Fla.) to a 10 μl gas-tight microsyringe (Hamilton, Reno, Nev.) was used. The amount of injected tracers was determined accurately using a micrometer to measure linear displacement of the syringe plunger in the precalibrated microsyringe. […] When the effects of different molecular reagents were tested, those were injected simultaneously with the radiolabeled peptides.
The analysis of radioactivity-disappearance curves from the brain was as reported (40, 43). The percentage of radioactivity remaining in the brain after microinjection was determined from eq. 1 as % Recovery in brain=100×(Nb/Ni) where, Nb is the radioactivity remaining in the brain at the end of the experiment and Ni is the radioactivity injected into the brain.
Inulin was studied as a metabolically inert polar reference marker that is neither transported across the BBB nor retained by the brain (40); its clearance rate, i.e., kinulin, provides a measure of the ISF bulk flow and is calculated as Nb(inulin)/Ni(inulin)=exp (−kinulin*t) (2).
For Aβ, there are two possible physiological pathways of elimination—direct transport across the BBB into the bloodstream and elimination by ISF bulk flow into the CSF and cervical lymphatics. It is also possible that Aβ is retained within the brain either by binding to its cell surface receptors directly as a free peptide and/or by binding to different transport proteins. Thus, according to the model, the fraction of Aβ remaining in the brain can be expressed as Nb(Aβ)/Ni(Aβ)=a1+a2*e^−k1*t (3), where a1=k2/(k1+k2) and a2=k1/(k1+k2), and k1 and k2 denote the fractional coefficients of total efflux from the brain and retention within the brain, respectively.
The fractional rate constant of Aβ efflux across the BBB from brain parenchyma can be calculated by knowing the fractional rate coefficient of total efflux of Aβ and inulin as k3=k1−k(inulin) (4), i.e., as the difference between the fractional rate constant for total efflux of Aβ and the fractional rate constant of inulin. The half-saturation concentration for the elimination of Aβ by transport across the BBB, k0.5, was calculated from the equation [1−(Nb/Ni)]*100=Clmax/(k0.5+Ni) (5), where Clmax represents the maximal efflux capacity for the saturable component of Aβ clearance across the BBB corrected for peptide clearance by the ISF flow. Clmax is expressed as a percentage of the injected dose, [1−(Nb/Ni)]×100, cleared from brain by saturable BBB transport over 30 min.
The MLAB mathematical modeling system (Civilized Software, Silver Spring, Md.) was used to fit the compartmental model to the disappearance curves or percent recovery data with inverse square weighting.

For data set [4], the system named is LRP-1. The data set can be described thus: Pulse chase of [35S]-methionine labeled LRP-1 in human brain endothelial cells (half-life). The format is cell-based. The protocol: Human BEC (4×10^5) were pulsed for 1 hr at 37° C. with 400 μCi of [35S]-methionine (greater than 1000 Ci/mmol; Perkin Elmer, Boston, Mass.) in methionine-free Dulbecco modified Eagle medium (GIBCO BRL, New York, N.Y.). Cells were chased at indicated times within 48 hr. Cell lysates were immunoprecipitated with anti-LRP-1 515 kDa α-chain specific IgG (8G1) on SDS-PAGE. The intensity of signal was quantified in pixels using Storm 860 Phosphoimager (Amersham Biosciences, Piscataway, N.J.).

In data set [5] the test system is brain clearance of ^125I-Aβ1-40. The data set can be described thus: Effect of molecular reagents on brain clearance of 125I-Aβ1-40 at 30 min. The format is in vivo, mice. Particulars: 125I-Aβ1-40 12 nM. On the procedure:
as §1
The next set of experiments was designed to characterize the BBB transport system responsible for the transcytosis of Aβ. […] Clearance of ^14C-inulin was not affected by any of the studied molecular reagents.

Take “Aβ1-40: synthetic wild-type amyloid-β peptide of 40 amino acids; in clearance text it means the radioiodinated tracer”: the “degradation/metabolism in brain ISF prior to BBB transport” value in data set [1] is reported as “not observed”. In addition, in data set [2], the “effect on LRP-1 levels (85 kDa β-subunit and 515 kDa α-subunit)” value (“effect on LRP-1 levels” for short) is listed as “progressively decreased”; the “effect on LRP-1 expression” value is “do not alter significantly”. Also, in data set [3] (mouse), the “half-saturation (K0.5) of the BBB efflux transport system” value worked out at 15.3 nM. Besides, in data set [3] (mouse, in vivo), the “Retention in brain t½” value came out at 2.742 h, the “Transport by BBB t½” value came to 0.577 ± 0.06 h, the “elimination rate from brain at less than 2 nM faster than at a load of 60 nM” value came out at 3.5 fold and the “rate k of clearance from the brain higher than that for inulin” value is recorded as 7.9 fold. For the same molecule, in data set [3] (mouse, in vivo), the “reduction of brain clearance in 9-month old apoE KO mice” value is 46%, the “reduction of brain clearance in 9-month old wild-type mice” value worked out at 55% and the “reduction of brain clearance in young (2-month old) apoE KO mice” value amounted to 30%. The “dose remaining sequestered within the CNS” value in data set [3] (mouse, in vivo, 5 h) is 15.6%. Further, in data set [3] (mouse, not told), the “Total Efflux t½ (half-time for brain efflux)” value turned out to be 0.417 h and the “difference in half-time of brain efflux versus inulin” value was 9.4 fold.

As for `CC(C)C[C@@H](C=O)NC(=O)[C@H](CC(C)C)NC(=O)[C@H](CC(C)C)NC(=O)OCc1ccccc1` [MG132] (Cbz-Leu-Leu-Leu-aldehyde), in data set [4] (MG132 20 μM, both control and Aβ-treated cells), the “effect on t1/2 for LRP-1” value is given as “increased”.

On to “mutant Aβ (Dutch/Iowa4o): synthetic Aβ peptide of 40 amino acids with Dutch/Iowa double mutation E22Q/D23N”, for which, in data set [2], the “effect on LRP-1 levels” value is “progressively decreased”; the “effect on LRP-1 expression” value is “do not alter significantly”.

For ^14C-Inulin, in data set [3] (60 nM), the “Retention in brain k” value is “None”, the “Retention in brain t½” value is recorded as “None” and the “Transport by BBB t½” value is listed as “None”. Besides, the “Total Efflux k” value in data set [3] (60 nM 125I-Aβ1-40 with 14C-inulin, microinjection into caudate nucleus, mice) stood at 0.0029 ± 0.0002 min⁻¹. Also, in data set [3] (60 nM, microinjection into caudate nucleus, young mice), the “Total Efflux t½ (half-time for brain efflux)” value amounted to 3.983 ± 0.208 h. In data set [3] (60 nM, ISF bulk flow), the “Transport by ISF k” value is 0.0029 ± 0.0002 min⁻¹ and the “Transport by ISF t½” value stood at 3.98 ± 0.208 h. The “Transport by BBB k” value in data set [3] (60 nM, k3=k1−k(inulin), eq. 4) was “None”.

As for “Aβ1-42: synthetic wild-type amyloid-β peptide of 42 amino acids”, in data set [2], the “effect on LRP-1 levels” value is recorded as “progressively decreased”; the “effect on LRP-1 expression” value is “do not alter significantly”. Besides, in data set [4] (20 μM, control 9.6 hr, human BEC), the “t1/2 for LRP-1 in the presence of peptide” value was 6.4 h.

B1: RAP: receptor associated protein, chaperone that antagonizes binding of LRP ligands to LRP-1 and LRP-2 (protein, UniProt P30533 35-357, looked up)
Alpha-2-macroglobulin …: YSREKNQPKPSPKRESGEEFRMEKLNQLWEKAQRLHLPPVRLAELHADLKIQERDELAWKKLKLDGLDEDGEKEARLIRNLNVILAKYGLDGKKDARQVTSNSLSGTQEDGLDDPRLEKLWHKAKTSGKFSGEELDKLWREFLHHKEKVHEYNVLLETLSRTEEIHENVISPSDLSDIKGSVLHSRHTELKEKLRSINQGLDRLRRVSHQGYSTEAEFEEPRVIDLWDLAQSANLTDKELEAFREELKHFEAKIEKHNHYQKQLEIAHEKLRHAESVGDGERVSRSREKHALLEGRTKELGYTVKKHLQDLSGRISRARHNEL
As for B1, the “reduction in Aβ clearance from the brain” value in data set [5] (RAP 200 nM, versus vehicle) turned out to be 30%. Also, the “decrease in Aβ clearance from the brain” value in data set [5] (RAP 5 μM) is listed as 44%.

The record behind these values is patent US20040259159A1, “Role of LDL receptor protein-1 (LRP-1) in Alzheimer's disease” (priority 2000, published 2004).
